How the values were obtained:
WEE1 = molecular target: T1, WEE1 (Homo sapiens, UniProt P30291+Q96SW2); assay: WEE1-ePL degradation assay (LentiX-WEE1-ePL-GSPT1-ND cells, InCELL Hunter luminescence, 4 h); type: cell-based; details: 293T-LentiX WEE1-ePL cells; for 293T-LentiX WEE1-ePL Degradation 4 hr (Ymin): lower limit of the fit (0 = luciferase inhibitor, Ymax = DMSO control); for DC50: read-out: 293T-LentiX WEE1-ePL Degradation 4 hr (EC50)
T1 construct: C-terminal ePL-tagged (DiscoverX, Fremont, CA) full-length WEE1 expression construct; expressed in transfected cells; host or cells: LentiX-HEK293T (Invitrogen), lentiviral transduction; co-expressing GSPT1-GN (G576N, lacking the first 158 amino acids)
Method in brief: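 LentiX-HEK293T cells stably expressing C-terminally ePL-tagged full-length WEE1 were treated with compounds in a 10-point, 3-fold dilution series starting at 1 uM or 10 uM for 4 h at 37 °C. Remaining WEE1-ePL was detected by InCELL Hunter luminescence, and EC50, Ymin and Ymax came from a four-parameter logistic fit against DMSO control.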

MKN45 cells = assay: MKN45 cell proliferation assay (Cell-Titer-Glo, 120 h); type: cell-based; details: for EC50: Homo sapiens, MKN-45, 120 h, Cell-Titer-Glo, growth inhibition, read-out: MKN45 Cell Prolif. 120 hr (EC50); for MKN45 Cell Prolif. 120 hr (Ymin-Obs): minimal percent of DMSO control observed in the concentrations tested
Method in brief: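 Growth inhibition was read as blank-corrected Cell-Titer-Glo luminescence expressed as percent DMSO control after 120 h at 37 C, 400 cells/well. Compounds tested in triplicate as 10-point half-log series from 1 or 10 uM, 0.1% DMSO; four-parameter fit gave EC50, and lowest observed percent control was reported as Ymin-obs.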

Compound | 293T-LentiX WEE1-ePL Degradation 4 hr (Ymin) (WEE1) | DC50 (WEE1) [nM] | EC50 (MKN45 cells) [nM] | MKN45 Cell Prolif. 120 hr (Ymin-Obs) (MKN45 cells)
CN1CCCc2cc(CN3CC[C@H](Oc4ccc5c(c4)CN(C4CCC(=O)NC4=O)C5=O)C3)cnc21 (stereo partly drawn) [3-(5-{[(3S)-1-[(8-methyl-5,6,7,8-tetrahydro-1,8-naphthyridin-3-yl)methyl]pyrrolidin-3-yl]oxy}-1-oxo-2,3-dihydro-1H-isoindol-2-yl)piperidine-2,6-dione] | 58 | 19.1 | > 10000 | 79.28
O=C1CCC(N2Cc3cc(O[C@H]4CCN(Cc5ccc6nc(N7C[C@H]8CCO[C@H]8C7)ncc6c5)C4)ccc3C2=O)C(=O)N1 (stereo partly drawn) [3-(5-{[(3S)-1-({2-[(3aR,6aR)-hexahydro-2H-furo[2,3-c]pyrrol-5-yl]quinazolin-6-yl}methyl)pyrrolidin-3-yl]oxy}-1-oxo-2,3-dihydro-1H-isoindol-2-yl)piperidine-2,6-dione] | 35 | 12.6 | 13.4 | 13.09
COc1cnc2ccc(CN3CC[C@H](Oc4ccc5c(c4)CN(C4CCC(=O)NC4=O)C5=O)C3)cc2c1 (stereo partly drawn) [3-(5-{[(3S)-1-[(3-methoxyquinolin-6-yl)methyl]pyrrolidin-3-yl]oxy}-1-oxo-2,3-dihydro-1H-isoindol-2-yl)piperidine-2,6-dione] | 34 | 3.25 | 19.1 | 12.81
O=C1CCC(N2Cc3cc(O[C@H]4CCN(Cc5ccc6nc([C@H]7CCC[C@@H](O)C7)ccc6c5)C4)ccc3C2=O)C(=O)N1 (stereo partly drawn) [3-(5-{[(3S)-1-({2-[(1S,3R)-3-hydroxycyclohexyl]quinolin-6-yl}methyl)pyrrolidin-3-yl]oxy}-1-oxo-2,3-dihydro-1H-isoindol-2-yl)piperidine-2,6-dione] | 32 | 9.66 | 11.1 | 7.93
O=C1CCC(N2Cc3cc(O[C@H]4CCN(Cc5ccnc(-c6ccccc6)c5)C4)ccc3C2=O)C(=O)N1 (stereo partly drawn) [3-(1-oxo-5-{[(3S)-1-[(2-phenylpyridin-4-yl)methyl]pyrrolidin-3-yl]oxy}-2,3-dihydro-1H-isoindol-2-yl)piperidine-2,6-dione] | 38 | 6.94 | 23 | 9.19
CO[C@H]1C[C@H](c2ccc3cc(CN4CC[C@H](Oc5ccc6c(c5)CN(C5CCC(=O)NC5=O)C6=O)C4)ccc3n2)C1 (stereo partly drawn) [drawing 578, 3-(1-oxo-5-{[(3S)-1-({2-[(1r,3r)-3-methoxycyclobutyl]quinolin-6-yl}methyl)pyrrolidin-3-yl]oxy}-2,3-dihydro-1H-isoindol-2-yl)piperidine-2,6-dione] | 27.12 | 3.61 | 3.3 | 7.412
O=C1CCC(N2Cc3cc(O[C@H]4CCN(Cc5cc6c(cn5)OCC6)C4)ccc3C2=O)C(=O)N1 (stereo partly drawn) [3-(5-{[(3S)-1-({2H,3H-furo[2,3-c]pyridin-5-yl}methyl)pyrrolidin-3-yl]oxy}-1-oxo-2,3-dihydro-1H-isoindol-2-yl)piperidine-2,6-dione] | 34 | 20.8 | 751 | 25.455
O=C1CCC(N2Cc3cc(O[C@H]4CCN(Cc5ccc6nc([C@H]7CCCOC7)ccc6c5)C4)ccc3C2=O)C(=O)N1 (stereo partly drawn) [3-(5-{[(3S)-1-({2-[(3R)-oxan-3-yl]quinolin-6-yl}methyl)pyrrolidin-3-yl]oxy}-1-oxo-2,3-dihydro-1H-isoindol-2-yl)piperidine-2,6-dione] | 32.33 | 3.33 | 5.28 | 12.5
COCc1ccc2cc(CN3CC[C@H](Oc4ccc5c(c4)CN(C4CCC(=O)NC4=O)C5=O)C3)ccc2n1 (stereo partly drawn) [3-(5-{[(3S)-1-{[2-(methoxymethyl)quinolin-6-yl]methyl}pyrrolidin-3-yl]oxy}-1-oxo-2,3-dihydro-1H-isoindol-2-yl)piperidine-2,6-dione] | 30.5 | 5.55 | 20.5 | 8.38
O=C1CCC(N2Cc3cc(O[C@@H]4CCN(Cc5ccc6nc([C@@H]7CCOC7)ncc6c5)C4)ccc3C2=O)C(=O)N1 (relative stereo) [rel-3-(1-oxo-5-{[(3R)-1-({2-[(3S)-oxolan-3-yl]quinazolin-6-yl}methyl)pyrrolidin-3-yl]oxy}-2,3-dihydro-1H-isoindol-2-yl)piperidine-2,6-dione] | 34 | 21.8 | 18.5 | 7.06
N#Cc1ccc2cc(CN3CC[C@H](Oc4ccc5c(c4F)CN(C4CCC(=O)NC4=O)C5=O)C3)ccc2n1 (stereo partly drawn) [6-{[(3S)-3-{[2-(2,6-dioxopiperidin-3-yl)-4-fluoro-1-oxo-2,3-dihydro-1H-isoindol-5-yl]oxy}pyrrolidin-1-yl]methyl}quinoline-2-carbonitrile] | 47 | 61.5 | 1430 | 62.465

Continued by falling DC50 (WEE1), values first:

293T-LentiX WEE1-ePL Degradation 4 hr (Ymin) (WEE1) | DC50 (WEE1) [nM] | EC50 (MKN45 cells) [nM] | Compound | MKN45 Cell Prolif. 120 hr (Ymin-Obs) (MKN45 cells)
68 | 558 | > 10000 | CN1CCc2c(cncc2CN2CC[C@H](Oc3ccc4c(c3)CN(C3CCC(=O)NC3=O)C4=O)C2)C1 (stereo partly drawn) [3-(5-{[(3S)-1-[(7-methyl-5,6,7,8-tetrahydro-2,7-naphthyridin-4-yl)methyl]pyrrolidin-3-yl]oxy}-1-oxo-2,3-dihydro-1H-isoindol-2-yl)piperidine-2,6-dione] | 84.06
34 | 216 | 5050 | CN1CCc2ncc(CN3CC[C@H](Oc4ccc5c(c4)CN(C4CCC(=O)NC4=O)C5=O)C3)cc2C1 (stereo partly drawn) [3-(5-{[(3S)-1-[(6-methyl-5,6,7,8-tetrahydro-1,6-naphthyridin-3-yl)methyl]pyrrolidin-3-yl]oxy}-1-oxo-2,3-dihydro-1H-isoindol-2-yl)piperidine-2,6-dione] | 33.405
64.5 | 83.9 | > 10000 | Cc1ccc2cc(CN3C[C@@H](Oc4ccc5c(c4)CN(C4CCC(=O)NC4=O)C5=O)C[C@@H]3C)ccc2n1 (stereo partly drawn) [3-(5-{[(3S,5S)-5-methyl-1-[(2-methylquinolin-6-yl)methyl]pyrrolidin-3-yl]oxy}-1-oxo-2,3-dihydro-1H-isoindol-2-yl)piperidine-2,6-dione] | 82.25
29.65 | 43.4 | 1030 | O=C1CCC(N2C(=O)c3ccc(O[C@H]4CCN(Cc5ccc6ncccc6c5)C4)cc3C2=O)C(=O)N1 (stereo partly drawn) [2-(2,6-dioxopiperidin-3-yl)-5-{[(3S)-1-[(quinolin-6-yl)methyl]pyrrolidin-3-yl]oxy}-2,3-dihydro-1H-isoindole-1,3-dione] | 21.24
30.5 | 32.6 | 21.4 | O=C1CCC(N2Cc3cc(O[C@H]4CCN(Cc5ccc6nc(C7CCOCC7)ncc6c5)C4)ccc3C2=O)C(=O)N1 (stereo partly drawn) [3-(5-{[(3S)-1-{[2-(oxan-4-yl)quinazolin-6-yl]methyl}pyrrolidin-3-yl]oxy}-1-oxo-2,3-dihydro-1H-isoindol-2-yl)piperidine-2,6-dione] | 6.11
33.5 | 5.55 | 12.3 | O=C1CCC(N2Cc3cc(O[C@H]4CCN(Cc5cc6cc(C7CCOCC7)ccc6cn5)C4)ccc3C2=O)C(=O)N1 (stereo partly drawn) [3-(5-{[(3S)-1-{[6-(oxan-4-yl)isoquinolin-3-yl]methyl}pyrrolidin-3-yl]oxy}-1-oxo-2,3-dihydro-1H-isoindol-2-yl)piperidine-2,6-dione] | 13.12
36 | 2.3 | 6.82 | COC1CN(c2ccc3cc(CN4CC[C@H](Oc5ccc6c(c5)CN(C5CCC(=O)NC5=O)C6=O)C4)ccc3n2)C1 (stereo partly drawn) [3-(5-{[(3S)-1-{[2-(3-methoxyazetidin-1-yl)quinolin-6-yl]methyl}pyrrolidin-3-yl]oxy}-1-oxo-2,3-dihydro-1H-isoindol-2-yl)piperidine-2,6-dione] | 11.6
33 | 2.17 | 8.4 | O=C1CCC(N2Cc3cc(O[C@H]4CCN(Cc5cncc(-c6ccccc6)c5)C4)ccc3C2=O)C(=O)N1 (stereo partly drawn) [3-(1-oxo-5-{[(3S)-1-[(5-phenylpyridin-3-yl)methyl]pyrrolidin-3-yl]oxy}-2,3-dihydro-1H-isoindol-2-yl)piperidine-2,6-dione] | 7.52
26 | 1.88 | 1.29 | CO[C@H]1CC[C@H](c2ccc3cc(CN4CC[C@H](Oc5ccc6c(c5)CN(C5CCC(=O)NC5=O)C6=O)C4)ccc3n2)CC1 (stereo partly drawn) [3-(1-oxo-5-{[(3S)-1-({2-[(1r,4r)-4-methoxycyclohexyl]quinolin-6-yl}methyl)pyrrolidin-3-yl]oxy}-2,3-dihydro-1H-isoindol-2-yl)piperidine-2,6-dione] | 11.035

Reference: patent US20240067632A1, “WEE1 Degrading Compounds and Uses Thereof” (Bristol-Myers Squibb Company, priority 2022, published 2024)
